These results are taken from PMC6934184, “Selective DNA-PKcs inhibition extends the therapeutic index of localized radiotherapy and chemotherapy” (The Journal of Clinical Investigation, 2019).

This experiment concerns the target T1, HCK (Homo sapiens, UniProt P08631).
T1 construct: purchased Thermo Fisher Scientific (Life Technologies) SelectScreen
Description: SelectScreen Z'LYTE. Format: biochemical. The essentials:
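Percent values come from Thermo SelectScreen profiling of NU5455, combining activity and binding assays. CSF1R was run in Z'LYTE format at Km app ATP, and CAMK1 in Adapta format with ATP listed at 10.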

SMILES strings stand for the structures.

T1 sequence (P08631 whole entry): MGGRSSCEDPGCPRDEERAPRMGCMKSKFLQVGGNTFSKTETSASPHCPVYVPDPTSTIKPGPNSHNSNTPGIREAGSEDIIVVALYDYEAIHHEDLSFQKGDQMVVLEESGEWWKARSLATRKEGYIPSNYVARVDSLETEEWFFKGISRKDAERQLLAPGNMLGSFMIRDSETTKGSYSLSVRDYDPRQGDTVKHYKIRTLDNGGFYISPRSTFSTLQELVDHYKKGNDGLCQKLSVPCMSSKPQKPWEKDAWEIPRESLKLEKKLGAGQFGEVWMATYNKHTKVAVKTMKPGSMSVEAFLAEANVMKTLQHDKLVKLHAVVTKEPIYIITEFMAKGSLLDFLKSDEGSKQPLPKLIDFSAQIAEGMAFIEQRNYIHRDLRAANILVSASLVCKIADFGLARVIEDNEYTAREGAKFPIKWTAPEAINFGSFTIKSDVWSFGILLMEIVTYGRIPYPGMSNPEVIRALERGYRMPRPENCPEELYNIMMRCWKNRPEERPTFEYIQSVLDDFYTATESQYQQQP

The inhibition is the change of the read-out against control, counted positive when it falls. Read a low inhibition as a weak effect. In turn, `CN(C(=O)CN1CCOCC1)c1ccc2sc3c(-c4cccc5c(=O)cc(N6CC7CCC(C6)O7)oc45)cccc3c2c1` [NU5455] came in with an inhibition at 1 µM of 18%.
